Test results from patent publication US7622487B2, “Piperidine derivative, process for producing the same, and use” (Takeda Pharmaceutical Company Limited, priority 2002, dated 2009).
Counter-ions that a name gives are not always drawn. Like-named read-outs stand apart in the source and are kept apart here.

What was measured:
[1] = target: T1, substance P receptor from human lymphoblast cells (IM-9) (Homo sapiens, UniProt P25103); test: Radioligand receptor binding inhibitory activity (125I-BHSP binding, receptor from human lymphoblast cells (IM-9))
T1 construct: The receptor was prepared from human lymphoblast cells (IM-9); endogenous in cells; host or cells: IM-9 human lymphoblast cells (crude membrane fraction, 40,000xG pellet)
T1 sequence (P25103 whole entry): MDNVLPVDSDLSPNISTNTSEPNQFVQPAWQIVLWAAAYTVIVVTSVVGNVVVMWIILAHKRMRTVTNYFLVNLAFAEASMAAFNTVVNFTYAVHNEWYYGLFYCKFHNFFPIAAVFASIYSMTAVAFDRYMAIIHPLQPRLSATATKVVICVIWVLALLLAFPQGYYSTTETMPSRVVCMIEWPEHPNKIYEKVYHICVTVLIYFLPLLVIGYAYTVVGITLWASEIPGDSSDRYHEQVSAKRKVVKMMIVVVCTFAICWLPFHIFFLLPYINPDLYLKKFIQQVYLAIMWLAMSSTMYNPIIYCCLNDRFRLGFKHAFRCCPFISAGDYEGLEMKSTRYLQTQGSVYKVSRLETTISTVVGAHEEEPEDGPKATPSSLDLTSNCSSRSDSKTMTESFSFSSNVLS
Description: Radioligand receptor binding inhibitory activity (Binding inhibitory activity using receptor from human lymphoblast cells (IM-9))
The method of M. A. Cascieri et al., “Molecular Pharmacology 42, p. […] The receptor was prepared from human lymphoblast cells (IM-9). IM-9 cells (2×10^5 cells/ml) were inoculated and incubated for 3 days (one liter), which was then subjected to centrifuge for 5 minutes at 500×G to obtain cell pellets. […] The residue was twice washed with 30 ml of the above-mentioned buffer, which was then preserved frozen (−80° C.) as a specimen of the receptor.
The specimen was suspended in a reaction buffer (50 mM Tri-HCl buffer (pH 7.4), 0.02% bovine serum albumin, 1 mM phenylmethylsulfonyl fluoride, 2 μg/ml chymostatin, 40 μg/ml bacitracin and 3 mM manganese chloride) to have protein in the concentration of 0.5 mg/ml of protein and 100 μl portion of the suspension was used in the reaction. […] The amount of nonspecific binding was determined by adding substance P at a final concentration of 2×10^−6 M.
After the reaction, using a cell harvester (290 PHD, Cambridge Technology, Inc, U.S.A.), rapid filtration was carried out through a glass filter (GF/B, Whatman, U.S.A.) to stop the reaction. After washing three times with 250 μl of 50 mM Tris-HCl buffer (pH 7.4) containing 0.02% bovine serum albumin, the radioactivity remaining on the filter was determined with a gamma counter. Before use, the filter was immersed in 0.1% polyethyleneimine for 24 hours and air-dried.

[2] = 125I-BHSP binding, receptor from human lymphoblast cells (IM-9), 25° C., 30 minutes, read-out: IC50 Value

Row | IC50 [1, 2] | Structure (SMILES) | also measured
1 | 0.085 nM | COc1ccc(-n2nnnc2C(F)(F)F)cc1CNC1CCN(C(=O)CO)CC1c1ccccc1 (racemic) [Example 760] | 
2 | 0.032 nM | CNC(=O)N1CC[C@H](NCc2cc(-n3nnnc3C(F)(F)F)ccc2OC)[C@H](c2ccccc2)C1 (single isomer, unassigned) [Example 72, (+)-cis-4-[[2-Methoxy-5-[5-(trifluoromethyl)-1H-tetrazol-1-yl]benzyl]amino]-N-methyl-3-phenyl-1-piperidinecarboxamide hydrochloride] | 
3 | 0.025 nM | CCNC(=O)N1CC[C@H](NCc2cc(-n3nnnc3C(F)(F)F)ccc2OC)[C@H](c2ccccc2)C1 (single isomer, unassigned) [Example 75, (+)-cis-N-Ethyl-4-[[2-methoxy-5-[5-(trifluoromethyl)-1H-tetrazol-1-yl]benzyl]amino]-3-phenyl-1-piperidinecarboxamide hydrochloride] | 
4 | 0.08 nM | COc1ccc(-n2nnnc2C(F)(F)F)cc1CNC1CCN(C(=O)CS(C)(=O)=O)CC1c1ccccc1 (racemic) [Example 763] | 
5 | 0.067 nM | COc1ccc(-n2nnnc2C(F)(F)F)cc1CNC1CCN(C(=O)Cn2cnnn2)CC1c1ccccc1 (racemic) [Example 757] | 
6 | 0.058 nM | COc1ccc(-n2nnnc2C(F)(F)F)cc1CNC1CCN(C(=O)C2CCN(C(C)=O)CC2)CC1c1ccccc1 (single isomer, unassigned; (-)) [Example 81, (−)-cis-1-[(1-Acetyl-4-piperidinyl)carbonyl]-N-[2-methoxy-5-[5-(trifluoroinethyl)-1H-tetrazol-1-yl]benzyl]-3-phenyl-4-piperidineamine hydrochloride] | 
7 | 0.096 nM | COc1ccc(-n2nnnc2C(F)(F)F)cc1CNC1CCN(C(=O)C2CCN(S(C)(=O)=O)CC2)CC1c1ccccc1 (racemic) [Example 755] | 
8 | 0.06 nM | COCC(=O)N1CC[C@H](NCc2cc(-n3nnnc3C(F)(F)F)ccc2OC)[C@H](c2ccccc2)C1 (single isomer, unassigned) [Example 78, (+)-cis-1-(Methoxyacetyl)-N-[2-methoxy-5-[5-(trifluoromethyl)-1H-tetrazol-1-yl]benzyl]-3-phenyl-4-piperidineamine hydrochloride] | 
9 | 0.042 nM | COc1ccc(-n2nnnc2C(F)(F)F)cc1CNC1CCN(C(=O)CN2C(=O)CCC2=O)CC1c1ccccc1 (racemic) [Example 764] | 

Continued, compound first:

Row | Structure (SMILES) | IC50 [1, 2] | also measured
10 | CNC(=O)N1CCC(OCc2cc(C(F)(F)F)cc(C(F)(F)F)c2)C(c2ccccc2)C1 (single isomer, unassigned; (+)) [Example 413, (+)-cis-4-[[3,5-Bis(trifluoromethyl)benzyl]oxy]-N-methyl-3-phenyl-1-piperidinecarboxamide] | 0.23 nM | 
11 | COc1ccc(-n2nnnc2C(F)(F)F)cc1CNC1CCN(C(=O)CCNC(C)=O)CC1c1ccccc1 (racemic) [Example 761] |  | IC50 [1]: 0.054 nM
12 | CC(=O)N1CCC(C(=O)N2CC[C@H](OCc3cc(C(F)(F)F)cc(C(F)(F)F)c3)[C@H](c3ccccc3)C2)CC1 [Example 70, (+)-(3R,4S)-1-[(1-Acetyl-4-piperidinyl)carbonyl]-4-[[3,5-bis(trifluoromethyl)benzyl]oxy]-3-phenylpiperidine] | 0.15 nM | 
13 | COc1ccc(-n2nnnc2C(F)(F)F)cc1CNC1CCN(C(=O)CNC(C)=O)CC1c1ccccc1 (racemic) [Example 753] |  | IC50 [1]: 0.073 nM
14 | CNC(=O)N1CC[C@H](OCc2cc(C(F)(F)F)cc(C(F)(F)F)c2)[C@H](Cc2ccccc2)C1 (relative stereo) [Example 405, cis-3-Benzyl-4-[[3,5-bis(trifluoromethyl)benzyl]oxy]-N-methyl-1-piperidinecarboxamide] |  | melting point: 160 to 161 °C
15 | COc1ccc(-n2nnnc2C(F)(F)F)cc1CNC1CCN(C(C)=O)CC1c1ccccc1 (racemic) [Example 762] |  | IC50 [1]: 0.049 nM
16 | CCNC(=O)N1CCC(NCc2cc(-n3nnnc3C(F)(F)F)cc3c2OCC3)C(c2ccccc2)C1 (single isomer, unassigned; (-)) [Example 84, (−)-cis-N-Ethyl-3-phenyl-4-[[[5-[5-(trifluoromethyl)-1-H-tetrazol-1-yl]-2,3-dihydro-1-benzofuran-7-yl]methyl]amino]-1-piperidinecarboxamide hydrochloride] | 0.051 nM | 
17 | CC(=O)N1CCC(C(=O)N2CC[C@H](NCc3cc(-n4nnnc4C(F)(F)F)cc4c3OCC4)[C@H](c3ccccc3)C2)CC1 (single isomer, unassigned) [Example 88, (−)-cis-1-[(1-Acetyl-4-piperidinyl)carbonyl]-3-phenyl-N-[[5-[5-(trifluoromethyl)-1H-tetrazol-1-yl]-2,3-dihydro-1-benzofuran-7-yl]methyl]-4-piperidineamine hydrochloride] | 0.06 nM | 
18 | CNC(=O)N1CCC(NCc2cc(-n3nnnc3C(F)(F)F)cc3c2OCC3)C(c2ccccc2)C1 (racemic) [Example 722] | 0.11 nM | 
19 | CCNC(=O)N1CCC(NCc2cc(OC(F)(F)F)ccc2OC)C(c2ccccc2)C1 (single isomer, unassigned; (+)) [Example 613, (+)-cis-N-Ethyl-4-[[2-methoxy-5-(trifluoromethoxy)benzyl]amino]-3-phenyl-1-piperidinecarboxamide] | 0.07 nM | 
